The source of these data is PMC4120670 (Kidney International, 2014).

Broadly, the IC50 is the midpoint of a concentration-inhibition curve. Higher therefore signals weaker potency in that assay. As a reminder, the Km is the substrate concentration at which the rate is half of its maximum.

One series has as its target T1, OCT2 (Homo sapiens, UniProt O15244).
T1 sequence (O15244 1-555): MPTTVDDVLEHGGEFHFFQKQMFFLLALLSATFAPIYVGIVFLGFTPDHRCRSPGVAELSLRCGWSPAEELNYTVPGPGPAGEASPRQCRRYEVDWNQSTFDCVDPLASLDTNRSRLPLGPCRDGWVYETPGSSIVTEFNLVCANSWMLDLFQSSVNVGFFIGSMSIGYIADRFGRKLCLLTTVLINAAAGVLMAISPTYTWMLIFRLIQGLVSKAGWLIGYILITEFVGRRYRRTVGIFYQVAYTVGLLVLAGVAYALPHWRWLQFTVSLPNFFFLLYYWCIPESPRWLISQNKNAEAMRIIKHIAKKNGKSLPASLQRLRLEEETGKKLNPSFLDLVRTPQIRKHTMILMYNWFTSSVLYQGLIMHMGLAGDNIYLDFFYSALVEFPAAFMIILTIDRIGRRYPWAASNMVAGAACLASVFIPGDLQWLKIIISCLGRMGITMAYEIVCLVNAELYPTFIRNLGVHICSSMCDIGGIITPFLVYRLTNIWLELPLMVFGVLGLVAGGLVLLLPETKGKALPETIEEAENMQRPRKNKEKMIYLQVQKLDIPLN
The series can be described thus: Inhibition of OCT2 transport of tetraethylammonium. The series is classed as cell-based.

The target of a further series is T2, OAT2 (Homo sapiens, UniProt Q9Y694).
T2 sequence (Q9Y694 1-548): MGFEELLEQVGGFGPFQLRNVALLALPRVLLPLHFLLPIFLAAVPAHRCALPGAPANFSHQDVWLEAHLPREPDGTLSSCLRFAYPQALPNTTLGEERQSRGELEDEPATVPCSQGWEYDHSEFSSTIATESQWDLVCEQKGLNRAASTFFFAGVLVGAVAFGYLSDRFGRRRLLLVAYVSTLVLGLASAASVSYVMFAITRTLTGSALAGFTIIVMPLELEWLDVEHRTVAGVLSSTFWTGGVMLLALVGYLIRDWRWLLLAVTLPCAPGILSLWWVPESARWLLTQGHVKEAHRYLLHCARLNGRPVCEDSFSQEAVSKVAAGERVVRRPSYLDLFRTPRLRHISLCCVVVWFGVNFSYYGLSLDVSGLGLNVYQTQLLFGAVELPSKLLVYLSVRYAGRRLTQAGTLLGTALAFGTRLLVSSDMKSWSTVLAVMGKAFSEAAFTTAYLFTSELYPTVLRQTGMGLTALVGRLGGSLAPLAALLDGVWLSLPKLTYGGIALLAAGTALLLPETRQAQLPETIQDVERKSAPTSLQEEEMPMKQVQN
As to the kind of experiment: Inhibition of OAT2 transport of 3′,5′-cyclic GMP. The series is classed as cell-based.

For a further series, the target named is T3, OCT3 (Homo sapiens, UniProt O75751).
T3 sequence (O75751 1-556): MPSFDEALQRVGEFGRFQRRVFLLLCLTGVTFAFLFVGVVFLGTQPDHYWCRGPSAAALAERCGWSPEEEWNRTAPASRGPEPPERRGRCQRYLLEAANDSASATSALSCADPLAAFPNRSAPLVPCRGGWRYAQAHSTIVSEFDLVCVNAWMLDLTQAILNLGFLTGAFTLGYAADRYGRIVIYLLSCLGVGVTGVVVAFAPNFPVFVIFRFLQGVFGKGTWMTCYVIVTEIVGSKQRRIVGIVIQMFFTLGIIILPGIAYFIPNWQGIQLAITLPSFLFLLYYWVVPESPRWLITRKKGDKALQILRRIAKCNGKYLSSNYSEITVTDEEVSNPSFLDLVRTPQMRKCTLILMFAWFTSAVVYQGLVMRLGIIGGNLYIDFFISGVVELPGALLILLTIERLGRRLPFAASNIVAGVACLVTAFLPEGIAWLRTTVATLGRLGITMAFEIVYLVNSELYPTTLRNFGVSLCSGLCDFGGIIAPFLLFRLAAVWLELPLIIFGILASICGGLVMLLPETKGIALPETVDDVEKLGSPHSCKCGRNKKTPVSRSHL
As to the kind of experiment: Inhibition of OCT3 transport of 1-methyl-4-phenylpyridinium. The series is classed as cell-based.

A further series concerns the target MATE2-K (Homo sapiens, UniProt Q86VL8). As to the kind of experiment: Inhibition of MATE2-K transport of tetraethylammonium. The series is classed as cell-based.
For series [1] the following is noted: most prominent effects, clinical; cited from earlier work.
The conditions of series [2]: more modest effects, clinical; cited from earlier work.
Substrate in series [3]: CN1CC(=O)NC1=N
The series can be described thus: Creatinine transport by OAT2 in transiently transfected MDCKII cells. The series is classed as cell-based, human. The conditions noted are these: other: creatinine transport by OAT2, transiently transfected cells.

Substrate in series [4]: CN1CC(=O)NC1=N
As to the kind of experiment: Creatinine transport by OCT2 in transiently transfected MDCKII cells. The series is classed as cell-based, human. The settings on record: other: creatinine transport by OCT2, transiently transfected cells.

Substrate in series [5]: CN1CC(=O)NC1=N
The series can be described thus: Creatinine transport by OCT3 in transiently transfected MDCKII cells. The series is classed as cell-based, human. The settings on record: other: creatinine transport by OCT3, transiently transfected cells.

MATE2-K, sequence (Q86VL8 1-566 isoform Q86VL8-3): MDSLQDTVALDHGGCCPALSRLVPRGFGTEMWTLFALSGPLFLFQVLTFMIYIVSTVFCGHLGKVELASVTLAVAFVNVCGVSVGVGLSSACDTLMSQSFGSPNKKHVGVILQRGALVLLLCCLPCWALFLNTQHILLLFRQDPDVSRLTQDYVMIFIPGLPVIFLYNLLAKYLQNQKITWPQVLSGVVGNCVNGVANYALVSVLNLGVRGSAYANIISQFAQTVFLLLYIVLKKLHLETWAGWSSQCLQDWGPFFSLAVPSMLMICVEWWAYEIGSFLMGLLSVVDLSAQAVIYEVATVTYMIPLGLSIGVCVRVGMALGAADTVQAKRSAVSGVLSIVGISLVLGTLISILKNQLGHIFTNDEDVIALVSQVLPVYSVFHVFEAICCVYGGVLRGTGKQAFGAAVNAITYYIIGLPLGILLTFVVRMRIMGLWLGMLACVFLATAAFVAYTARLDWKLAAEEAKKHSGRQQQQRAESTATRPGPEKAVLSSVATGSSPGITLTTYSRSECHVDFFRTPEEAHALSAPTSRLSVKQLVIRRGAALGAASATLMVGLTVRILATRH

Molecule `COc1cc(Cc2cnc(N)nc2N)cc(OC)c1OC` [Trimethoprim, trimethoprim] gave an IC50 at OCT2 of 68 ± 5.2 µM.

For the molecule `CC(C)c1nc(CN(C)C(=O)N[C@H](C(=O)N[C@@H](Cc2ccccc2)C[C@H](O)[C@H](Cc2ccccc2)NC(=O)OCc2cncs2)C(C)C)cs1` [Ritonavir, ritonavir], on OAT2 (model substrate, curve could not be generated), the “Concentration-dependent inhibition of OAT2-dependent transport” value was “lack of concentration-dependent inhibition”.

With `CN/C(=N/CCSCc1nc[nH]c1C)NC#N` [Cimetidine, cimetidine], the IC50 against OAT2 came out at 72.8 ± 17 µM; against OCT2 it was 135 ± 16 µM; against OCT3 it was 87.7 ± 55.1 µM; on MATE2-K, 46.6 ± 7.23 µM. Further, the “Decreases in creatinine clearance” value in [1] is listed as 15–34 ml/min per 1.73 m^2.

For `Cc1cc(/C=C/C#N)cc(C)c1Nc1ccnc(Nc2ccc(C#N)cc2)n1` [Rilpivirine, rilpivirine], in series [2], the Serum creatinine increases was approximately 0.1 mg/dL.

B1: OAT2 (Homo sapiens) (protein)
chain: T2 sequence (Q9Y694 1-548)
On to B1, for which the Km in [3] was 986 ± 177 µM.

B2: OCT2 (Homo sapiens) (protein)
chain: T1 sequence (O15244 1-555)
Take B2: in series [4], the Km is 1860 ± 370 µM.

B3: OCT3 (Homo sapiens) (protein)
chain: T3 sequence (O75751 1-556)
Turning to B3, in series [5], the Michaelis-Menten constant (Km) amounted to 1320 ± 380 µM.
